Assay results: patent US9193731B2, “Antimicrobial compounds and methods of making and using the same” (Melinta Therapeutics, Inc., priority 2009, dated 2015)

These compounds were tested on Escherichia coli strain ATCC25922 (assay: standard microdilution assay to determine minimum inhibitory concentrations (MICs)). Conditions: Escherichia coli strain ATCC25922, microdilution.
Format: cell-based
Method in brief: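 E. coli strain ATCC25922 tested per CLSI microdilution methodology (about 100 microliters per well) to find minimum inhibitory concentrations. Activity scored categorically at a 16 micrograms/ml threshold.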

SMILES	E. coli ATCC25922 MIC
N=C(N)NCCCNCc1ccc(-n2cc3cc(-c4cc(CCCCN)cc([S+]([O-])C(F)(F)F)c4)[nH]c3nc2=O)cc1 (stereo not shown) [Compound 2054a]	+ (a “+” indicates that the compound has an MIC value of 16 micrograms/ml or less)
N=C(N)NCCCNCc1ccc(-n2cc3cc(-c4cc(CCCN)cc(OC(F)(F)F)c4)[nH]c3nc2=O)cc1 [Compound 2058a]	+ (a “+” indicates that the compound has an MIC value of 16 micrograms/ml or less)
N=C(N)NCCCNCc1ccc(-n2cc3cc(-c4ccc(S(=O)(=O)CCCNC5CCCNC5)cc4)[nH]c3nc2=O)cc1 (stereo not shown) [Compound 1293]	+ (a “+” indicates that the compound has an MIC value of 16 micrograms/ml or less)
N=C(N)NCCCNCc1ccc(-n2cc3cc(-c4cc(C(=O)N(CCO)CCO)cc(N5CCNCC5)c4)[nH]c3nc2=O)cc1 [Compound 895]	+ (a “+” indicates that the compound has an MIC value of 16 micrograms/ml or less)
NC1CCN(Cc2ccc(-n3cc4cc(-c5ccc(S(=O)(=O)N(CCCn6cnnc6)C6CCNCC6)cc5)[nH]c4nc3=O)cc2)C1 (stereo not shown) [Compound 1220]	− (a “−” indicates that the compound has an MIC value greater than 16 micrograms/ml)
NCCCNCc1ccc(-n2cc3cc(-c4cc(C(=O)N5CCS(=O)(=O)CC5)cc(N5CCNCC5)c4)[nH]c3nc2=O)cc1 [Compound 874]	− (a “−” indicates that the compound has an MIC value greater than 16 micrograms/ml)
N=C(N)NCCCNCc1ccc(-n2cc3cc(-c4cc(OC(F)(F)F)cc([S+]([O-])CCCN)c4)[nH]c3nc2=O)cc1 (stereo not shown) [Compound 2076a]	+ (a “+” indicates that the compound has an MIC value of 16 micrograms/ml or less)
N=C(N)NCCCNC(=O)c1ccc(-n2cc3cc(-c4ccc(S(=O)(=O)NC5CNC5)cc4)[nH]c3nc2=O)cc1 [Compound 1268]	+ (a “+” indicates that the compound has an MIC value of 16 micrograms/ml or less)
N=C(N)NCCCNCc1ccc(-n2cc3cc(C4CCN(CC(F)CN)C4)[nH]c3nc2=O)cc1 (stereo not shown) [Compound 2000a]	+ (a “+” indicates that the compound has an MIC value of 16 micrograms/ml or less)
N=C(N)NCCCNCc1ccc(-n2cc3cc(-c4cc(CN)cc(CCCCN)c4)[nH]c3nc2=O)cc1 [Compound 2064a]	+ (a “+” indicates that the compound has an MIC value of 16 micrograms/ml or less)
COc1ccc(CCN(C2CCNCC2)S(=O)(=O)c2cccc(-c3cc4cn(-c5ccc(CNCCCN=C(N)N)cc5)c(=O)nc4[nH]3)c2)cc1 [Compound 1226]	+ (a “+” indicates that the compound has an MIC value of 16 micrograms/ml or less)
N=C(N)NCCCNC(=O)c1ccc(C2N=c3cc(-c4ccc(S(=O)(=O)N(CCCN5CCCCC5)C5CCNCC5)cc4)[nH]c3=NC2=O)cc1 (stereo not shown) [Compound 1017]	+ (a “+” indicates that the compound has an MIC value of 16 micrograms/ml or less)
CN1CCN(CCCN(C2CCNCC2)S(=O)(=O)c2ccc(-c3cc4cn(-c5ccc(CNCCCNC(=N)N)cc5)c(=O)nc4[nH]3)cc2)CC1 [Compound 899]	+ (a “+” indicates that the compound has an MIC value of 16 micrograms/ml or less)
NCCCNCc1ccc(-n2cc3cc(-c4ccc(C(NC5CCNCC5)C(F)(F)F)cc4)[nH]c3nc2=O)cc1 (stereo not shown) [Compound 918]	+ (a “+” indicates that the compound has an MIC value of 16 micrograms/ml or less)
CNCc1ccc(-n2cc3cc(-c4ccc(S(=O)(=O)N(CCCc5ccc(F)cc5)C5CCNCC5)cc4)[nH]c3nc2=O)cc1 [Compound 1062]	− (a “−” indicates that the compound has an MIC value greater than 16 micrograms/ml)
CN(C)Cc1ccc(-n2cc3cc(-c4ccc(S(=O)(=O)N(CCCC5CCCC5)C5CCNCC5)cc4)[nH]c3nc2=O)cc1 [Compound 1000]	− (a “−” indicates that the compound has an MIC value greater than 16 micrograms/ml)
CN1CCN(CCOc2cc(-n3cc4cc(-c5ccc(S(=O)(=O)NC6CCNCC6)cc5)[nH]c4nc3=O)ccc2C(=O)NCCCNC(=N)N)CC1 [Compound 1152]	− (a “−” indicates that the compound has an MIC value greater than 16 micrograms/ml)
COc1cc(-n2cc3cc(-c4cccc(OCC(F)CN)c4)[nH]c3nc2=O)ccc1CNCCCNC(=N)N (stereo not shown) [Compound 1391]	+ (a “+” indicates that the compound has an MIC value of 16 micrograms/ml or less)

Same assay, conditions: Escherichia coli, ATCC25922, Escherichia coli strain ATCC25922, microdilution; read-out: E. coli ATCC25922 MIC

MIC [µg/mL]	SMILES
> 16	N=C(N)NCCCNCc1ccc(-n2cc3cc(C4CCCN(Cc5ncc[nH]5)C4)[nH]c3nc2=O)cc1 (stereo not shown) [Compound 2022a]
> 16	CC(=O)NCCN(C1CCNCC1)S(=O)(=O)c1cccc(-c2cc3cn(-c4ccc(CN)cc4)c(=O)nc3[nH]2)c1 [Compound 1224]
> 16	NCCCc1cccc(-c2cc3cn(-c4ccc(C(N)=O)cc4)c(=O)nc3[nH]2)c1 [Compound 2056a]
> 16	COCc1cc2cn(-c3ccc(CNCCCN)cc3)c(=O)nc2[nH]1 [Compound 610]
< 16	N=C(N)NCCCNCc1ccc(-n2cc3cc(-c4ccc(S(=O)(=O)[C@H]5CCNC5)cc4)[nH]c3nc2=O)cc1 [Compound 1154]
> 16	NCCCOCc1ccc(-c2cn3cc(-c4ccc(C(=O)NC5CCNCC5)cc4)[nH]c3nc2=O)cc1 [Compound 927]
< 16	NCCCN(CCCN)Cc1ccc(-n2cc3cc(-c4ccc(C(=O)NC5CCNCC5)cc4)[nH]c3nc2=O)cc1 [Compound 197]
> 16	NCCCCCc1ccc(-c2cn3cc(-c4ccc(Br)cc4)[nH]c3nc2=O)cc1 [Compound 886]
> 16	COc1ccccc1-c1nn2cc(-c3ccc(CNCCCN)cc3)c(=O)nc2[nH]1 [Compound 734]
> 16	CN(C)CCOc1ccccc1-c1cc2cn(-c3ccc(CNCCCNC(=N)N)cc3)c(=O)nc2[nH]1 [Compound 1167]
< 16	CN(CCO)C(=O)c1ccc(-c2cn3cc(-c4ccc(CNCCCN)cc4)c(=O)nc3[nH]2)cc1 [Compound 771]
> 16	NCCCNCc1ccc(-n2cc3cc(COc4ccccc4)[nH]c3nc2=O)cc1 [Compound 626]
> 16	NCCC(=O)NCCCn1cc2cc(-c3ccc(S(=O)(=O)N[C@@H]4CCCNC4)cc3)[nH]c2nc1=O [Compound 1298]

Further lines, the compound ahead of its results:

SMILES	MIC [µg/mL]
O=C(NC1CCNCC1)c1ccc(-c2cc3cn(-c4ccc(CNCCCCl)cc4)c(=O)nc3[nH]2)c(F)c1 [Compound 253]	> 16
N=C(N)NCCCNCc1ccc(-n2cc3cc(-c4cc(CCCCN)cc(C(F)(F)F)c4)[nH]c3nc2=O)cc1 [Compound 2029a]	< 16
NCc1ccc(-n2cc3cc(-c4ccccc4OCCCO)[nH]c3nc2=O)cc1 [Compound 1105]	> 16
NCCCc1c[nH]c2cc(-n3cc4cc(CCS(=O)(=O)C5CCNCC5)[nH]c4nc3=O)ccc12 [Compound 1282]	> 16
NCCCNCc1ccc(-n2cc3cc(-c4cc(C(=O)Nc5ccc(F)cc5)cc(N5CCNCC5)c4)[nH]c3nc2=O)cc1 [Compound 760]	< 16
N[C@H]1CCCN(Cc2ccc(-n3cc4cc[nH]c4nc3=O)cc2)C1 [Compound 1156]	> 16
N=C(N)NCCCNCc1ccc(-c2cn3cc(-c4ccc(C(=O)N5CCOCC5)cc4)[nH]c3nc2=O)cc1 [Compound 654]	> 16
N=C(N)NCCCNCc1ccc(-n2cc3cc(-c4cccc(S(=O)(=O)NC5CCNCC5)c4)[nH]c3nc2=O)cc1 [Compound 836]	< 16
N=C(N)NCCCNCc1ccc(-c2cn3cc(-c4ccc(C(=O)N5CCNCC5)cc4)[nH]c3nc2=O)cc1 [Compound 683]	< 16
